Data as given in PMC8565515, “Dasabuvir Inhibits Human Norovirus Infection in Human Intestinal Enteroids” (mSphere, 2021).
Where a name gives a salt, the structure may show the parent alone. Read-outs that look alike come from different tables or passages of the source.

Columns and labels:
GII.4 HuNoV = GII.4 HuNoV infection of HIE monolayers, viral genome equivalents by RT-qPCR; assay type: cell-based, human norovirus; settings: for activity at 10 µM: Norovirus, 24 h, read-out: (%) HuNoV GEs
[1] = compound 10 μM, n = 1, J2 HIE monolayers, GII.4 HuNoV, 24 hpi, normalized to DMSO control

Compound	activity at 10 µM (GII.4 HuNoV; [1]) [%]	(%) Cytotoxicity (J2 HIE monolayers; human, 24 h, 10 μM) [%]	further results
NC(=O)c1ncn([C@@H]2O[C@H](CO)[C@@H](O)[C@H]2O)n1 [Ribavirin]	64.5		
Cc1cccc(C)c1OCC(=O)N[C@@H](Cc1ccccc1)[C@@H](O)C[C@H](Cc1ccccc1)NC(=O)[C@H](C(C)C)N1CCCNC1=O [Lopinavir]	102	9.07	
HZ-1157			(%) HuNoV GEs (GII.4 HuNoV; [1]): 36.74%
CC1(C)S[C@@H]2[C@H](NC(=O)[C@H](NC(=O)N3CCNC3=O)c3ccccc3)C(=O)N2[C@H]1C(=O)O [Azlocillin sodium]	28		
C[C@@H](c1ncncc1F)[C@](O)(Cn1cncn1)c1ccc(F)cc1F [Voriconazole]	14.1	-1.63	
COC(=O)N[C@H](C(=O)N1CCC[C@H]1c1nc(-c2ccc(-c3ccc(-c4c[nH]c([C@@H]5CCCN5C(=O)[C@@H](NC(=O)OC)C(C)C)n4)cc3)cc2)c[nH]1)C(C)C [Daclatasvir dihydrochloride]	178	5.28	
Clc1ccccc1C(c1ccccc1)(c1ccccc1)n1ccnc1 [Clotrimazole]	159	0.51	
C=CC1=C(C(=O)O)N2C(=O)[C@@H](NC(=O)/C(=N\O)c3csc(N)n3)[C@H]2SC1 [Cefdinir]	118	2.33	
C=C(C)[C@@H]1CC[C@]2(C(=O)O)CC[C@]3(C)[C@H](CC[C@@H]4[C@@]5(C)CC[C@H](O)C(C)(C)[C@@H]5CC[C@]43C)[C@@H]12 [Betulinic acid]	16.4		
CC(=O)Oc1c(C)c(C)c2c(c1C)CCC(C)(CCC[C@H](C)CCC[C@H](C)CCCC(C)C)O2 (some centres unmarked) [Vitamin E Acetate]	55.8		
Nc1nc2c(ncn2COCCO)c(=O)[nH]1 [Aciclovir]	54.4	0.59	
NC(=O)N1CCC(CC(=O)N2CCC([C@H]3c4ncc(Br)cc4CCc4cc(Cl)cc(Br)c43)CC2)CC1 [Lonafarnib]	62.3		
C[C@H](NC(=O)C(=O)Nc1ccccc1C(C)(C)C)C(=O)N[C@@H](CC(=O)O)C(=O)COc1c(F)c(F)cc(F)c1F [Emricasan]	198		
O=C(O)P(=O)(O)O [Foscarnet sodium]	88.5	1.07	
Cc1cn([C@H]2C[C@H](N=[N+]=[N-])[C@@H](CO)O2)c(=O)[nH]c1=O [Zidovudine]	57.6		
Clc1ccc(C(Cn2ccnc2)OCc2ccsc2Cl)c(Cl)c1 (centres unmarked) [Vagistat]	28.3	3.16	
Nc1nc(NC2CC2)c2ncn([C@H]3C=C[C@@H](CO)C3)c2n1 [Abacavir]	64.9	0.27	

Compound	activity at 10 µM (GII.4 HuNoV; [1]) [%]	(%) Cytotoxicity (J2 HIE monolayers; human, 24 h, 10 μM) [%]	further results
OC[C@H]1O[C@@H](O[C@@H]2OC=C[C@H]3[C@H](O)[C@@H]4O[C@]4(CO)[C@@H]23)[C@H](O)[C@@H](O)[C@@H]1O [Catalpol]	104	3.07	
CN(C(=O)CN(CCO)CC(=O)N(C)C(C)(C)Cc1ccccc1)C(C)(C)Cc1ccccc1 [Oxethazaine]	29.4	1.91	
CO[C@H]1/C=C/O[C@@]2(C)Oc3c(C)c(O)c4c(O)c(c(/C=N/N5CCN(C)CC5)c(O)c4c3C2=O)NC(=O)/C(C)=C\C=C\[C@H](C)[C@H](O)[C@@H](C)[C@@H](O)[C@@H](C)[C@H](OC(C)=O)[C@@H]1C [Rifampicin]	60.2	2.64	
COC(=O)C(C)(N)C(C)(C)C (centres unmarked) [6526-0824]			(%) Cytotoxicity (J2 HIE monolayers): 2.41%; (%) HuNoV GEs (GII.4 HuNoV; [1]): 131.97%
CC1(C)S[C@@H]2[C@H](NC(=O)[C@H](N)c3ccccc3)C(=O)N2[C@H]1C(=O)O [Ampicillin Trihydrate]	100	1.14	
CCOC(=O)c1ccc(OCCC2CCN(c3ccc(C)nn3)CC2)cc1 [Pirodavir]	50.5	-3.64	
C[C@@]1(F)[C@H](O)[C@@H](CO)O[C@H]1n1ccc(=O)[nH]c1=O [PSI6206]			(%) HuNoV GEs (GII.4 HuNoV; [1]): 143.70%
Cc1c(O)cccc1C(=O)N[C@@H](CSc1ccccc1)[C@H](O)CN1C[C@H]2CCCC[C@H]2C[C@H]1C(=O)NC(C)(C)C [Nelfinavir Mesylate]	39.7	4.06	
Cc1nn(CCC(=O)Nc2cccc(C#N)c2)c(C)c1S(=O)(=O)N1CCCCC1 [G402-0939]			(%) HuNoV GEs (GII.4 HuNoV; [1]): 147.17%
Cc1cn([C@H]2C=C[C@@H](CO)O2)c(=O)[nH]c1=O [Stavudine]	124	2.15	
Clc1ccc(COC(Cn2ccnc2)c2ccc(Cl)cc2Cl)cc1 (centres unmarked) [Econazole]	95.8	7.35	
S=C(NCCc1ccccn1)Nc1ccc(Br)cn1 [Trovirdine]			activity at 10 µM (GII.4 HuNoV): 48.3%
Cc1cc(O)cc(C)c1Cl [Chloroxylenol]	65.9		
CN(C)CC[C@@H](c1ccc(Cl)cc1)c1ccccn1 [Dexchlorpheniramine Maleate]	63.6	-3.40	
COc1ncnc(NS(=O)(=O)c2ccc(N)cc2)c1OC [Sulfadoxine]	50	2.36	
Cn1c(Cn2ccc(C(F)(F)F)c(Oc3cc(Cl)cc(C#N)c3)c2=O)n[nH]c1=O [Doravirine]	32.7		
